Experimental findings from publication PMC4557121, “TRB3 links insulin/IGF to tumour promotion by interacting with p62 and impeding autophagic/proteasomal degradations” (Nature Communications, 2015) are described below.

In one assay the test system is B16-F10 cells. Description: B16-F10 tumour growth and metastasis in TRB3 knockdown KK-Ay mice given 3-MA or MG132. In kind it is in vivo. The note with it: KK-Ay/TRB3-KD mice, B16-F10 s.c. or i.v.; 3-MA 30 mg kg^−1 per day or MG132 2.5 mg kg^−1 twice a week i.p.; n=6 per group; Supplementary Fig. 4g,h. How it is done: Seven-week-old KK-Ay mice were i.p. injected with TRB3-shRNA lentiviral particles (2 × 10^5 plaque-forming unit) to generate KK-Ay/TRB3-KD mice; over 75% depletion of TRB3 in target tissues (lungs and liver) was considered as effectively knocking down. 3-MA (30 mg kg^−1 per day) or MG132 (2.5 mg kg^−1 twice a week) was i.p. injected to the KK-Ay/TRB3-KD mice, from day 9 after tumour inoculation to the time of being killed. The evaluation of tumour growth and metastasis was described in the section of ‘Mouse Models for Tumour Growth and Metastasis'.
control-shRNA. Data are the summarized fold changes of proteins (control-
shRNA/TRB3-shRNA1) (upper) and representative spots showing
differentially expressed EGFR (framed) (lower). Data are representative of 2
independent assays. (e) The xenograft tumours express higher pro-
metastasis and pro-EMT factors in KK-Ay mice than that in C57 BL/6 mice.
Data are representative immunoblots of 4 independent assays. (f) The liver
and lung tissues express higher pro-metastasis and pro-EMT factors in
DMBA-treated KK-Ay mice than that in DMBA-treated C57 BL/6. Data are
representative immunoblots of 4 independent assays. (g,h) Suppressing
autophagy or UPS reverses the antitumour effect of TRB3 knockdown. TRB3
knockdown KK-Ay mice were s.c. injected with B16-F10 cells ([…]) or i.v. […]
Statistical significance was determined by Student’s t-test; *P<0.05, **P<0.01,

In assay [1] the test system is TRB3-silenced HepG2 cells. Description: Protein turnover assay in TRB3-silenced HepG2 cells with degradation inhibitors. The assay is classed as cell-based, human. The note with it: inhibitor 12 h, immunoblot, Fig. 3f. As to the method:
Figure 3 Enhanced TRB3 compromises selective autophagy and clearance of UPS. (a) BEAS-2B cells were infected with TRB3-Myc-adenovirus expressing Myc-Tagged TRB3 with an independently expressing GFP. GFP-adenovirus was used as control. Indicated molecules were detected by immunoblotting. Data are representatives of four independent assays. (b) TRB3-silenced cells were treated with IGF-1 (100 nM) for 12 h and indicated proteins were detected by immunoblotting. Data are representatives of four independent assays. (c) Control or TRB3-silenced HepG2 cells were infected with adenovirus with mRFP-GFP-LC3-PE. After 24 h, the cells were treated with IGF-1 (100 nM) for 12 h and the flux rate of autophagy was detected with Live Cell Imaging Microscopy. Data are schematic drawing of the autophagy process (upper) and microscopy images showing red-coloured autophagolysosomes or red/green double-coloured autophagosomes (lower). Scale bar, 10 μm. See also Supplementary Movies 1–6. (d) Silencing TRB3 increased the number of autophagosomes (Avi) and autolysosomes (Avd) in HepG2 cells treated with or without IGF-1 (100 nM). Data are representative images of TEMs of three independent assays. Single arrows denote Avi; double arrows indicate Avd. Scale bar, 500 nm. The ratio of autophagic vacuole area to the cytoplasmic area was determined by morphometric analysis. Data are means±s.e.m. (e) TRB3-silenced cells were treated with IGF-1 (100 nM) for 12 h. Expression of indicated proteins was detected by immunoblotting. Data are representatives of four independent assays. (f) TRB3-silenced HepG2 cells were treated with bafilomycin (left) or MG132 (right) for 12 h. Indicated proteins were detected by immunoblotting. […] The cells were treated with or without IGF-1 for 12 h and the expression of Ub^G76V-GFP was immunoblotted with anti-GFP antibody (Ab; left) or detected with flow cytometry (right). […] The proliferative and invasive capacities of cells were evaluated with Edu (h) and transwell assays (i). Statistical significance was determined with one-way analysis of variance (ANOVA); *P<0.05; **P<0.01; ***P<0.001. […]
(In general: A western blot detects proteins with antibodies after separation by electrophoresis.)

In a further assay the target is T1, TRB3 (Homo sapiens, UniProt Q96RU7).
T1 sequence (Q96RU7 1-358): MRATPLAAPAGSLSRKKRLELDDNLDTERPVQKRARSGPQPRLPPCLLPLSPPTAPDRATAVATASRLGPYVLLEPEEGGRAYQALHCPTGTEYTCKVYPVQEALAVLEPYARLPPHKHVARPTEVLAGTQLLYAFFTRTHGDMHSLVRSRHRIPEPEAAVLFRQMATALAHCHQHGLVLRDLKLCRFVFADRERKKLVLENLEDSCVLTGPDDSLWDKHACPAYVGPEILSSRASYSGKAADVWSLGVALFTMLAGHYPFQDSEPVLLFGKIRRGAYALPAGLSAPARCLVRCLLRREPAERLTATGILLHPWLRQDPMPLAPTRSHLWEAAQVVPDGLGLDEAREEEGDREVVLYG
Description: Surface plasmon resonance binding of peptides to immobilized TRB3. How it is done:
Binding kinetics between TRB3 and control, P2, P4, P6, P7, P8, P9, P11, A1, A2 or A3 were measured by a surface plasmon resonance assay using BIAcore T200 instrument (GE Healthcare, Pittsburgh, USA)[53]. The dissociation constant (KD) was calculated according to the BIA-evaluation software.
For orientation: SPR reads the build-up and loss of mass on a sensor chip optically.

The subject of another assay is p62. The assay is described as follows: Cycloheximide chase of p62 degradation in HepG2 cells. In kind it is cell-based, human. The note with it: CHX 10 μg ml^−1 after insulin/IGF-1 stimulation, 8.5 h without stimulation, three independent assays, Fig. 4b. As to the method:
Figure 4 TRB3 mediates insulin/IGF-induced p62 accumulation. (a) HepG2 cells were treated with indicated stimulators for 12 h. The mRNAs were determined with RT–PCR using specific primer sets. Data are means±s.e.m of three independent assays. (b) HepG2 cells were incubated with cycloheximide (CHX) (10 μg ml^−1) for indicated time points after insulin/IGF-1 stimulation. Indicated proteins were detected with immunoblotting. Data are means±s.e.m of three independent assays. (c) Control or TRB3-silenced cells were incubated with CHX (10 μg ml^−1) for indicated time points after IGF-1 stimulation. Cell lysates were isolated for immunoblotting. Data are means±s.e.m of three independent assays. (d) HepG2 cells expressing p62- or control-siRNA were co-transfected with Ub^G76V-GFP. The cells were treated with IGF-1 for 12 h. The cell lysates were isolated for immunoblotting. Data are representative of immunoblots of three independent assays. (e) Cells expressing control-shRNA or TRB3-shRNAs were transfected with Ub^G76V-GFP plasmid plus or minus with p62-DDK-expressing plasmid. The lysates were isolated for immunoblotting. […] After 24 h, the cells were treated with IGF-1 for 12 h, and the flux rate of autophagy was detected with Live Cell Imaging Microscopy. […] Indicated proteins were evaluated with immunoblotting. […] Statistical significance was determined with Student's t-test; *P<0.05. […]

[2] abbreviates: SPR, BIAcore T200, peptide passed over TRB3 immobilized on CM5 sensor chip, alanine scan of A2, Fig. 6f, read-out: KD.

For orientation: Kd means the constant that tells how readily two partners part at equilibrium.

Like-named read-outs stand apart in the source and are kept apart here. Where a SMILES comes first, the peptide text is derived from it. Where no end group is shown, it is not given here. The star is where a group is joined. Cbz = O=C(OCc1ccccc1)*

For `Cn1cnc(N)c2ncnc1-2` [3-MA], the “effect on antitumour actions of TRB3 deficiency” value with B16-F10 cells is given as “overturn the antitumour actions of TRB3 deficiency”.
In the case of `CC(C)C[C@@H](C=O)NC(=O)[C@H](CC(C)C)NC(=O)[C@H](CC(C)C)NC(=O)OCc1ccccc1` [MG132] (Cbz-Leu-Leu-Leu-aldehyde), in assay [1], the “turnover of COX2, Twist and MMP-2” value is recorded as “inhibited”. Moreover, in the assay on B16-F10 cells, the “effect on antitumour actions of TRB3 deficiency” value was “overturn the antitumour actions of TRB3 deficiency”.
Turning to `CO/C1=C\C(C)=C\[C@@H](C)[C@@H](O)[C@@H](C)C/C(C)=C/C=C/[C@H](OC)[C@@H]([C@@H](C)[C@@H](O)[C@H](C)[C@@]2(O)C[C@@H](O)[C@H](C)[C@@H](C(C)C)O2)OC1=O` [bafilomycin], in assay [1], the “turnover of COX2, Twist and MMP-2” value is reported as “not inhibited”; the “turnover of LC3, EGFR, c-Myc, MMP1 and p62” value is on record as “inhibited”.
Regarding AGWLTRLLQTK [M1], binding at TRB3 was put at a Kd of 1640 nM.
At TRB3, GAWLTRLLQTK [M2] registered a Kd of 402 nM.
The same measure, in the same setting: as for GGALTRLLQTK [M3], the figure is 3590 nM; as for GGWATRLLQTK [M4], 4320 nM.
As for GGWLARLLQTK [M5], the equilibrium dissociation constant (Kd) at TRB3 (setting [2]) came out at 110 nM.
On the same count and under the same terms, as for GGWLTALLQTK [M6], the figure is 0.142 nM.
Still for that read-out and setting: as for GGWLTRALQTK [M7], the figure is 11800 nM.
GGWLTRLLATK [M9]: the dissociation constant (Kd) on TRB3 was 35600 nM.
Still for that read-out and setting: the result for GGWLTRLLQAK [M10] reads 381 nM; that for GGWLTRLLQTA [M11], 73.1 nM.
Consider IGF-1, for which, in the assay on p62, the “half-life of p62 degradation” value is on record as 24 h.
As to insulin, the “half-life of p62 degradation” value in the assay on p62 is reported as 24 h.
